The values below come from patent US7659270B2, “Hepatitis C virus inhibitors” (Bristol-Myers Squibb Company, priority 2006, dated 2010).

The test system of this experiment is HCV 1b-377-neo replicon cells. In words: HCV replicon assay (HCV 1b-377-neo replicon cells). It is filed as cell-based, Hepatitis C virus genotype 1b. To be noted: Hepatitis C virus, read-out: EC50 range against HCV 1b (Range). On the procedure:
An HCV Replion assay was utilized in the present disclosure, and was prepared, conducted and validated as described in commonly owned PCT/US2006/022197 and in O'Boyle et. al. Antimicrob Agents Chemother. April 2005;49(4): 1346-53.
HCV 1b-377-neo replicon cells were used to test the currently described compound series as well as cells resistant to compound A due to a Y2065H mutation in NS5A (described in application PCT/US2006/022197). The compounds tested were determined to have more than 10-fold less inhibitory activity on cells resistant to compound A than wild-type cells indicating a related mechanism of action between the two compound series. Thus, the compounds of the present disclosure can be effective to inhibit the function of the HCV NS5A protein and are understood to be as effective in combinations as previously described in application PCT/US2006/022197 and commonly owned WO/04014852. Further, the compounds of the present disclosure can be effective against the HCV 1b genotype. It should also be understood that the compounds of the present disclosure can inhibit multiple genotypes of HCV. […] In one embodiment compounds of the present disclosure are active against the 1a, 1b, 2a, 2b, 3a, 4a, and 5a genotypes.
One may read the EC50 as the concentration at which the effect is half-maximal. `C[C@@H](c1ncc(-c2ccc(-c3ncc(-c4cnc([C@@H]5CCCN5C(=O)[C@@H](c5ccccc5)N5CCCCC5)[nH]4)cn3)cc2)[nH]1)N(C)C(=O)[C@@H](c1ccccc1)N1CCCCC1` [Example 152j-6, (2R)-N-methyl-2-phenyl-N-((1S)-1-(4-(4-(5-(2-((2S)-1-((2R)-2-phenyl-2-(1-piperidinyl)acetyl)-2-pyrrolidinyl)-1H-imidazol-5-yl)-2-pyrimidinyl)phenyl)-1H-imidazol-2-yl)ethyl)-2-(1-piperidinyl)acetamide]: the EC50 lay within 10 to 999 pM. For `CN(C)[C@@H](C(=O)N1CCC[C@H]1c1ncc(-c2ccc(-c3cnc(-c4cnc([C@@H]5CCCN5C(=O)[C@@H](c5ccccc5)N(C)C)[nH]4)cn3)cc2)[nH]1)c1ccccc1` [Example 152j-7, (1R)-2-((2S)-2-(5-(5-(4-(2-((2S)-1-((2R)-2-(dimethylamino)-2-phenylacetyl)-2-pyrrolidinyl)-1H-imidazol-5-yl)phenyl)-2-pyrazinyl)-1H-imidazol-2-yl)-1-pyrrolidinyl)-N,N-dimethyl-2-oxo-1-phenylethanamine] the value was 1000 to 99000 pM; for `COC(=O)N[C@@H](C(=O)N1CCC[C@H]1c1ncc(-c2ccc(-c3cnc(-c4cnc([C@@H]5CCCN5C(=O)[C@H](NC(=O)OC)c5ccccc5)[nH]4)cn3)cc2)[nH]1)c1ccccc1` [Example 152j-8, methyl ((1R)-2-((2S)-2-(5-(5-(4-(2-((2S)-1-((2R)-2-((methoxycarbonyl)a-mino)-2-phenylacetyl)-2-pyrrolidinyl)-1H-imidazol-5-yl)phenyl)-2-pyrazinyl)-1H-imidazol-2-yl)-1-pyrrolidinyl)-2-oxo-1-phenylethyl)carbamate], 10 to 999 pM; for `CN(C)[C@@H](C(=O)N1CCC[C@H]1c1ncc(-c2ccc(-c3ccc(-c4cnc([C@@H]5CCCN5C(=O)[C@@H](c5ccccc5)N(C)C)[nH]4)nn3)cc2)[nH]1)c1ccccc1` [Example 152j-9, (1R)-2-((2S)-2-(5-(6-(4-(2-((2S)-1-((2R)-2-(dimethylamino)-2-phenylacetyl)-2-pyrrolidinyl)-1H-imidazol-5-yl)phenyl)-3-pyridazinyl)-1H-imidazol-2-yl)-1-pyrrolidinyl)-N,N-dimethyl-2-oxo-1-phenylethanamine], 1000 to 99000 pM. For `COC(=O)N[C@@H](C(=O)N1CCC[C@H]1c1ncc(-c2ccc(-c3ccc(-c4cnc([C@@H]5CCCN5C(=O)[C@H](NC(=O)OC)c5ccccc5)[nH]4)nn3)cc2)[nH]1)c1ccccc1` [Example 152j-10, methyl ((1R)-2-((2S)-2-(5-(6-(4-(2-((2S)-1-((2R)-2-((methoxycarbonyl)a-mino)-2-phenylacetyl)-2-pyrrolidinyl)-1H-imidazol-5-yl)phenyl)-3-pyridazinyl)-1H-imidazol-2-yl)-1-pyrrolidinyl)-2-oxo-1-phenylethyl) carba-mate] the value was 1000 to 99000 pM; for `C[C@H](NC(=O)[C@@H](c1ccccc1)N(C)C)c1ncc(-c2ccc(-c3ccc(-c4cnc([C@@H]5CCCN5C(=O)[C@@H](c5ccccc5)N(C)C)[nH]4)cn3)cc2)[nH]1` [Example 152j-11, (2R)-2-(dimethylamino)-N-((1S)-1-(5-(4-(5-(2-((2S)-1-((2R)-2-(dimethylamino)-2-phenylacetyl)-2-pyrrolidinyl)-1H-imidazol-5-yl)-2-pyridinyl)phenyl)-1H-imidazol-2-yl)ethyl)-2-phenylacetamide], 10 to 999 pM; for `COC(=O)N[C@@H](C(=O)N[C@@H](C)c1ncc(-c2ccc(-c3ccc(-c4cnc([C@@H]5CCCN5C(=O)[C@H](NC(=O)OC)c5ccccc5)[nH]4)cn3)cc2)[nH]1)c1ccccc1` [Example 152j-12, methyl ((1R)-2-((2S)-2-(5-(6-(4-(2-((1S)-1-(((2R)-2-((methoxycarbonyl)a-mino)-2-phenyl-acetyl)amino)eth-yl)-1H-imidazol-5-yl)phenyl)-3-pyridinyl)-1H-imidazol-2-yl)-1-pyrrolidinyl)-2-oxo-1-phenylethyl)carbamate], 10 to 999 pM. The figure for `C[C@H](NC(=O)[C@@H](c1ccccc1)N(C)C)c1ncc(-c2ccc(-c3ccc(-c4cnc([C@@H]5CCCN5C(=O)[C@@H](c5ccccc5)N(C)C)[nH]4)nn3)cc2)[nH]1` [Example 152j-13, (2R)-2-(dimethylamino)-N-((1S)-1-(5-(4-(6-(2-((2S)-1-((2R)-2-(dimethylamino)-2-phenylacetyl)-2-pyrrolidinyl)-1H-imidazol-5-yl)-3-pyridazinyl)phenyl)-1H-imidazol-2-yl)ethyl)-2-phenylacetamide] is 1000 to 99000 pM; for `COC(=O)N[C@@H](C(=O)N[C@@H](C)c1ncc(-c2ccc(-c3ccc(-c4cnc([C@@H]5CCCN5C(=O)[C@H](NC(=O)OC)c5ccccc5)[nH]4)nn3)cc2)[nH]1)c1ccccc1` [Example 152j-14, methyl ((1R)-2-((2S)-2-(5-(6-(4-(2-((1S)-1-(((2R)-2-((methoxycarbonyl)a-mino)-2-phenyl-acetyl)amino)eth-yl)-1H-imidazol-5-yl)phenyl)-3-pyridazinyl)-1H-imidazol-2-yl)-1-pyrrolidinyl)-2-oxo-1-phenylethyl)carbamate] it is 1000 to 99000 pM; for `COC(=O)N[C@@H](C(=O)N[C@@H](C)c1ncc(-c2ccc(-c3ncc(-c4cnc([C@@H]5CCCN5C(=O)[C@H](NC(=O)OC)c5ccccc5)[nH]4)cn3)cc2)[nH]1)c1ccccc1` [Example 152j-15, methyl ((1R)-2-((2S)-2-(5-(2-(4-(2-((1S)-1-(((2R)-2-((methoxycarbonyl)a-mino)-2-phenyl-acetyl)amino)eth-yl)-1H-imidazol-5-yl)phenyl)-5-pyrimidinyl)-1H-imidazol-2-yl)-1-pyrrolidinyl)-2-oxo-1-phenylethyl)carbamate] it is 10 to 999 pM. Consider `C[C@H](NC(=O)[C@@H](c1ccccc1)N(C)C)c1ncc(-c2cnc(-c3ccc(-c4cnc([C@@H]5CCCN5C(=O)[C@@H](c5ccccc5)N(C)C)[nH]4)cc3)nc2)[nH]1` [Example 152j-16, (2R)-2-(dimethylamino)-N-((1S)-1-(5-(2-(4-(2-((2S)-1-((2R)-2-(dimethylamino)-2-phenylacetyl)-2-pyrrolidinyl)-1H-imidazol-5-yl)phenyl)-5-pyrimidinyl)-1H-imidazol-2-yl)ethyl)-2-phenylacetamide], for which the concentration giving a half-maximal response (EC50) lay in the range of 10 to 999 pM. For `COC(=O)N[C@@H](C(=O)N[C@@H](C)c1ncc(-c2cnc(-c3ccc(-c4cnc([C@@H]5CCCN5C(=O)[C@H](NC(=O)OC)c5ccccc5)[nH]4)cc3)nc2)[nH]1)c1ccccc1` [Example 152j-17, methyl ((1R)-2-((2S)-2-(5-(4-(5-(2-((1S)-1-(((2R)-2-((methoxycarbonyl)a-mino)-2-phenyl-acetyl)amino)eth-yl)-1H-imidazol-5-yl)-2-pyrimidinyl)phenyl)-1H-imidazol-2-yl)-1-pyrrolidinyl)-2-oxo-1-phenylethyl)carba-mate] the value was 10 to 999 pM; for `C[C@H](NC(=O)[C@@H](c1ccccc1)N(C)C)c1ncc(-c2cnc(-c3ccc(-c4cnc([C@@H]5CCCN5C(=O)[C@@H](c5ccccc5)N(C)C)[nH]4)cc3)cn2)[nH]1` [Example 152j-18, (2R)-2-(dimethylamino)-N-((1S)-1-(5-(5-(4-(2-((2S)-1-((2R)-2-(dimethylamino)-2-phenylacetyl)-2-pyrrolidinyl)-1H-imidazol-5-yl)phenyl)-2-pyrazinyl)-1H-imidazol-2-yl)ethyl)-2-phenylacetamide], 10 to 999 pM; for `COC(=O)N[C@@H](C(=O)N[C@@H](C)c1ncc(-c2cnc(-c3ccc(-c4cnc([C@@H]5CCCN5C(=O)[C@H](NC(=O)OC)c5ccccc5)[nH]4)cc3)cn2)[nH]1)c1ccccc1` [Example 152j-19, methyl ((1R)-2-((2S)-2-(5-(4-(5-(2-((1S)-1-(((2R)-2-((methoxycarbonyl)a-mino)-2-phenyl-acetyl)amino)eth-yl)-1H-imidazol-5-yl)-2-pyrazinyl)phenyl)-1H-imidazol-2-yl)-1-pyrrolidinyl)-2-oxo-1-phenylethyl)carbamate], 10 to 999 pM. For `C[C@@H](c1ncc(-c2ccc(-c3ncc(-c4cnc([C@@H]5CCCN5C(=O)[C@@H](c5ccccc5)N(C)C)[nH]4)cn3)cc2)[nH]1)N(C)C(=O)[C@@H](c1ccccc1)N(C)C` [Example 152j-20, (2R)-2-(dimethylamino)-N-((1S)-1-(5-(4-(5-(2-((2S)-1-((2R)-2-(dimethylamino)-2-phenylacetyl)-2-pyrrolidinyl)-1H-imidazol-5-yl)-2-pyrimidinyl)phenyl)-1H-imidazol-2-yl)ethyl)-N-methyl-2-phenylacetamide] the value was 1000 to 99000 pM; for `COC(=O)N[C@@H](C(=O)N(C)[C@@H](C)c1ncc(-c2ccc(-c3ncc(-c4cnc([C@@H]5CCCN5C(=O)[C@H](NC(=O)OC)c5ccccc5)[nH]4)cn3)cc2)[nH]1)c1ccccc1` [Example 152j-21, methyl ((1R)-2-((2S)-2-(5-(2-(4-(2-((1S)-1-(((2R)-2-((methoxycarbonyl)a-mino)-2-phenylacetyl)(methyl)amino)ethyl)-1H-imidazol-5-yl)phenyl)-5-pyrimidinyl)-1H-imidazol-2-yl)-1-pyrrolidinyl)-2-oxo-1-phenylethyl)carbamate], 10 to 999 pM.
